The source of these data is ChEMBL document CHEMBL1158440, “Linear disulfide-containing low polymer as efficient DNA cleavage reagent” (Bioorg Med Chem Lett, 2009).

The source made the active and inactive calls. The rule behind the calls is not given here.

What all share (type): nucleic-acid assay
Experiment [1] deals with Nucleic Acid. Put plainly: Induction of supercoiled Escherichia coli pUC19 cleavage assessed as formation of nicked DNA at 7 mg/L in phosphate buffered saline at pH 7.4 after 24 hrs by agarose gel electrophoresis relative to control.
The test system of experiment [2] is Nucleic Acid. Put plainly: Induction of supercoiled Escherichia coli pUC19 cleavage assessed as formation of nicked DNA at 14 mg/L in phosphate buffered saline at pH 7.4 after 24 hrs by agarose gel electrophoresis relative to control.
In experiment [3] the test system is Nucleic Acid. Nature of the experiment: Induction of supercoiled Escherichia coli pUC19 cleavage assessed as formation of nicked DNA at 28 mg/L in phosphate buffered saline at pH 7.4 after 24 hrs by agarose gel electrophoresis relative to control.
Experiment [4] deals with Nucleic Acid. Put plainly: Induction of supercoiled Escherichia coli pUC19 cleavage assessed as formation of nicked DNA at 56 mg/L in phosphate buffered saline at pH 7.4 after 24 hrs by agarose gel electrophoresis relative to control.
In experiment [5] the test system is Nucleic Acid. Put plainly: Induction of supercoiled Escherichia coli pUC19 cleavage assessed as formation of nicked DNA at 56 mg/L in phosphate buffered saline at pH 7.4 after 8 hrs by agarose gel electrophoresis relative to control.
Experiment [6] concerns Nucleic Acid. Nature of the experiment: Induction of supercoiled Escherichia coli pUC19 cleavage assessed as formation of nicked DNA at 56 mg/L in phosphate buffered saline at pH 7.4 upto 24 hrs by agarose gel electrophoresis relative to control.
Another experiment has as its system Calf thymus DNA. Put plainly: Binding affinity to calf thymus DNA assessed as change in melting temperature at 18 mg/L by spectrophotometry. The note with it: Bos taurus.
The test system of experiment [7] is Nucleic Acid. Put plainly: Induction of supercoiled Escherichia coli pUC19 cleavage assessed as formation of nicked DNA at 56 mg/L in phosphate buffered saline at pH 7.4 after 24 hrs by agarose gel electrophoresis in presence of NaN3.
Experiment [8] has as its system Nucleic Acid. Nature of the experiment: Induction of supercoiled Escherichia coli pUC19 cleavage assessed as formation of nicked DNA at 56 mg/L in phosphate buffered saline at pH 7.4 after 24 hrs by agarose gel electrophoresis in presence of potassium iodide.
The test system of experiment [9] is Nucleic Acid. Put plainly: Induction of supercoiled Escherichia coli pUC19 cleavage assessed as formation of nicked DNA at 56 mg/L in phosphate buffered saline at pH 7.4 after 24 hrs by agarose gel electrophoresis in presence of tert-butyl alcohol.
Experiment [10] deals with Nucleic Acid. Put plainly: Induction of supercoiled Escherichia coli pUC19 cleavage assessed as formation of nicked DNA at 56 mg/L in phosphate buffered saline at pH 7.4 after 24 hrs by agarose gel electrophoresis in presence of DMSO.

What is called ΔTm is the shift of the melting midpoint relative to a reference. Regarding `O=C(CS)N1CCNCCN(C(=O)CS)CCNCC1`, the Activity in the experiment on Nucleic Acid [1] was 20%; in the experiment with Nucleic Acid [2], 24%; with Nucleic Acid [3], 44%; in the experiment with Nucleic Acid [4] it was 63%; with Nucleic Acid [5], 35%; with Nucleic Acid [6], 92%. Further, in the experiment with Calf thymus DNA, the ΔTm was determined as 3.4 °C.
Consider `O=C(CS)N1CCNCCN(C(=O)CSSCC(=O)N2CCNCCN(C(=O)CSSCC(=O)N3CCNCCN(C(=O)CSSCC(=O)N4CCNCCN(C(=O)CSSCC(=O)N5CCNCCN(C(=O)CS)CCNCC5)CCNCC4)CCNCC3)CCNCC2)CCNCC1`, for which the Activity with Nucleic Acid [1] came out at 31%; in the experiment with Nucleic Acid [2], 66%; with Nucleic Acid [3], 92%; in the experiment with Nucleic Acid [4] it was 100%. For the same compound, the outcome in the experiment on Nucleic Acid [5] and in the experiment on Nucleic Acid [10] was Active. In addition, in the experiment on Calf thymus DNA, the ΔTm stood at 4 °C. Further, the outcome with Nucleic Acid [7], with Nucleic Acid [8] and in the experiment with Nucleic Acid [9] was inactive.
